Results from article PMC9030254, “Target Hopping from Protein Kinases to PXR: Identification of Small-Molecule Protein Kinase Inhibitors as Selective Modulators of Pregnane X Receptor from TüKIC Library” (Cells, 2022).

How the values were obtained:
Experiment in all cases: Kinase profiling
Format in all cases: biochemical
[1] = target: T1, TBK1 (Homo sapiens, UniProt Q9UHD2)
T1 construct: purchased ProQinase (Freiburg, Germany)
T1 sequence (Q9UHD2 1-729): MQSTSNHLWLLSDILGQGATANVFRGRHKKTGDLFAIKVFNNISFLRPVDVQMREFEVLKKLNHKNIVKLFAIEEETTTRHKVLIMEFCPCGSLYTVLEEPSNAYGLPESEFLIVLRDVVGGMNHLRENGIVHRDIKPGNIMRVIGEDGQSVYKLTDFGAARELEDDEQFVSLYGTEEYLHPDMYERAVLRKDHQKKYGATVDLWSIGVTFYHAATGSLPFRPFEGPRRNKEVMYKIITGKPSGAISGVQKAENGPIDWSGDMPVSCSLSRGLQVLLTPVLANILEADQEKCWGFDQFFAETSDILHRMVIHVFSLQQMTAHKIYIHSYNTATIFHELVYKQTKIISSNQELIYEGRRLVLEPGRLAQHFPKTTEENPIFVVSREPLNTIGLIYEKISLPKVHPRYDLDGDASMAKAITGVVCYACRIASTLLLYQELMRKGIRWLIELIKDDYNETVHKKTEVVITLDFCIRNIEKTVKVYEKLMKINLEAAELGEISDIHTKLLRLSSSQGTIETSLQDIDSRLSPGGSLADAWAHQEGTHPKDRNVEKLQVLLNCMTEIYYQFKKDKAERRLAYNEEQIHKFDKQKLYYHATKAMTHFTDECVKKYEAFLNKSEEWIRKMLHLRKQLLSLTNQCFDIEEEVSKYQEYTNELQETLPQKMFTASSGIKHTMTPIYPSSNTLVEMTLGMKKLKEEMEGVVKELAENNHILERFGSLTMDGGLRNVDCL
Experimental: (§1) The analysis was performed by ProQinase (Freiburg, Germany).

[2] = target: T2, ASK1 (Homo sapiens, UniProt Q99683)
T2 construct: purchased ProQinase (Freiburg, Germany)
T2 sequence (Q99683 1-1374): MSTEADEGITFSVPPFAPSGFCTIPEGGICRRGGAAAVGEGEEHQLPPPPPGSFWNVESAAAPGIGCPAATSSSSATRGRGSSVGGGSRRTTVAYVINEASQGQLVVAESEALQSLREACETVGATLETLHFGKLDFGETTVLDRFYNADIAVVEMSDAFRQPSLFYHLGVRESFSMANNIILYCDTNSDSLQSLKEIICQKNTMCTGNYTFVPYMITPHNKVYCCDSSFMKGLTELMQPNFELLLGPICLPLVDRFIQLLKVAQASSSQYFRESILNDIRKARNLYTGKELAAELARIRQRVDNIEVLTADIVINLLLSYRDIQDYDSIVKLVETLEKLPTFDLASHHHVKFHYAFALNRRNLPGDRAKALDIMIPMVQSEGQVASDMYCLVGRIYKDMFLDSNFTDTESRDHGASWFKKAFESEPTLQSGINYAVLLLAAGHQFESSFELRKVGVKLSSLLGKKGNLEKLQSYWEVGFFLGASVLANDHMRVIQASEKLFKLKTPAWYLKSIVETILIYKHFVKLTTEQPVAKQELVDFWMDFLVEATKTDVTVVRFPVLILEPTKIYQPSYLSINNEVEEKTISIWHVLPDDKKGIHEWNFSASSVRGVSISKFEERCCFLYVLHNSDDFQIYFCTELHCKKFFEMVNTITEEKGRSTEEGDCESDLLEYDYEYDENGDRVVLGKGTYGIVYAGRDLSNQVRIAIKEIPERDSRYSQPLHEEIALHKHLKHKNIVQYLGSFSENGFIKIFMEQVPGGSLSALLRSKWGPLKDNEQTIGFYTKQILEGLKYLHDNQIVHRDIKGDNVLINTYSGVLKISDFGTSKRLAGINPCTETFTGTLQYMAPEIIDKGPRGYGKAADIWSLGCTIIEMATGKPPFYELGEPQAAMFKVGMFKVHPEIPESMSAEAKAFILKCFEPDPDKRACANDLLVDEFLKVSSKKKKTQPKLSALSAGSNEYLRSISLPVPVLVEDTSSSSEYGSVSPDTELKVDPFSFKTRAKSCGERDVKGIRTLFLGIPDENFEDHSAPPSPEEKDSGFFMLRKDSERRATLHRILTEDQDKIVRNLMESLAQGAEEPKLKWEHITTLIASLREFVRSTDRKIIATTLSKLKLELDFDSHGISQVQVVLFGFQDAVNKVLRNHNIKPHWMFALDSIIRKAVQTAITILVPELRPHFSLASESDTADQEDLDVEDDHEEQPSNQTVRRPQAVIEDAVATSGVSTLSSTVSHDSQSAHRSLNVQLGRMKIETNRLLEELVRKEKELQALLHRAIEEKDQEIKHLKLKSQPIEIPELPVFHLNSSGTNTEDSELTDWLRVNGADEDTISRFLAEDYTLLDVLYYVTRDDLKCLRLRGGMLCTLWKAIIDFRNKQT
Experimental: as §1

[3] = target: T3, COT (Homo sapiens, UniProt P41279)
T3 construct: purchased ProQinase (Freiburg, Germany)
T3 sequence (P41279 whole entry): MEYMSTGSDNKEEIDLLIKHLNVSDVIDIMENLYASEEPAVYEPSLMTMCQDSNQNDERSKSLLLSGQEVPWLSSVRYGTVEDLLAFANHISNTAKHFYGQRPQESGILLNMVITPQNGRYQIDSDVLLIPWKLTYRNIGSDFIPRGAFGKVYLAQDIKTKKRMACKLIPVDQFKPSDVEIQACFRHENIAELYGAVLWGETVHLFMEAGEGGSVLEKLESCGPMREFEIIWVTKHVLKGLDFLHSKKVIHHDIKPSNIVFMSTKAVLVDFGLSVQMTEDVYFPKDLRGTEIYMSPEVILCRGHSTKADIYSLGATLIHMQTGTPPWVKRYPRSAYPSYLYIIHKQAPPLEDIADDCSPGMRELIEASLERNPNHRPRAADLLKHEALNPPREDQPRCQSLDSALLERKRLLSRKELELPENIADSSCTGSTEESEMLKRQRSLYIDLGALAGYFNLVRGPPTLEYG
Experimental: as §1

[4] = target: T4, ROCK1 (Homo sapiens, UniProt Q13464)
T4 construct: purchased ProQinase (Freiburg, Germany)
T4 sequence (Q13464 whole entry): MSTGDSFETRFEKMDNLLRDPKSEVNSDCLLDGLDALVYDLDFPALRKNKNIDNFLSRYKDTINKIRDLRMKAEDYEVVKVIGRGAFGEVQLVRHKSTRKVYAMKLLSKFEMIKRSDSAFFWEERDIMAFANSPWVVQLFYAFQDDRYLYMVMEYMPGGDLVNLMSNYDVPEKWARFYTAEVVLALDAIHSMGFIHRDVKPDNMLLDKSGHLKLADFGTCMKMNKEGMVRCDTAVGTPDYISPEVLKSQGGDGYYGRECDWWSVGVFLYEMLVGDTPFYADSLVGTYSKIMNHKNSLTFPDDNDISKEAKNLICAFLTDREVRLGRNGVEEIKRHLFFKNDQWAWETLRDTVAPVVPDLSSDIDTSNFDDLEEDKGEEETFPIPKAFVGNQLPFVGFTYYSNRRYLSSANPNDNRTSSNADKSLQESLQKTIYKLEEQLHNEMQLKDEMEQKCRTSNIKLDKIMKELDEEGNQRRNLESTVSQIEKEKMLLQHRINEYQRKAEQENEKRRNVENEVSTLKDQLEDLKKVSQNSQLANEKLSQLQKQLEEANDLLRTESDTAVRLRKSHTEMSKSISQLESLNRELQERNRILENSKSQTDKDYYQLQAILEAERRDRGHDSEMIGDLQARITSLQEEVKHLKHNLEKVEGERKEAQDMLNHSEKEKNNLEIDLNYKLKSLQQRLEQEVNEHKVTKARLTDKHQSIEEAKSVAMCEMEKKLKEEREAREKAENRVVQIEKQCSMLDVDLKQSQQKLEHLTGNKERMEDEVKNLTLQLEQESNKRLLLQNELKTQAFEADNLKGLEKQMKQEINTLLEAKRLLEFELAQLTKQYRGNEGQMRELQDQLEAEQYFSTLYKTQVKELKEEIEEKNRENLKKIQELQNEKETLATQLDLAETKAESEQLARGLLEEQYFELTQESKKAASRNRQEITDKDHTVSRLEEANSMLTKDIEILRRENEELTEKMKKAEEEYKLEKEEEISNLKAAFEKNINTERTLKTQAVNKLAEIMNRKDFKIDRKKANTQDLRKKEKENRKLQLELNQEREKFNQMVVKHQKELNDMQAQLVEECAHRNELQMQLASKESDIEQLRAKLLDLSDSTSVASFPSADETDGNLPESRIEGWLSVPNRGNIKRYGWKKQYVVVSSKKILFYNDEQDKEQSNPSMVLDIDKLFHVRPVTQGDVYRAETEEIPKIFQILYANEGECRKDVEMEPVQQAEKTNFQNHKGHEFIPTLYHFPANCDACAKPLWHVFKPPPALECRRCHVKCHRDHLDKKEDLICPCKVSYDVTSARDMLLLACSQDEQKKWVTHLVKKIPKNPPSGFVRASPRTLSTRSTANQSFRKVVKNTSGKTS
Experimental: as §1

[5] = target: T5, DAPK3 (Homo sapiens, UniProt O43293)
T5 construct: purchased ProQinase (Freiburg, Germany)
T5 sequence (O43293 whole entry): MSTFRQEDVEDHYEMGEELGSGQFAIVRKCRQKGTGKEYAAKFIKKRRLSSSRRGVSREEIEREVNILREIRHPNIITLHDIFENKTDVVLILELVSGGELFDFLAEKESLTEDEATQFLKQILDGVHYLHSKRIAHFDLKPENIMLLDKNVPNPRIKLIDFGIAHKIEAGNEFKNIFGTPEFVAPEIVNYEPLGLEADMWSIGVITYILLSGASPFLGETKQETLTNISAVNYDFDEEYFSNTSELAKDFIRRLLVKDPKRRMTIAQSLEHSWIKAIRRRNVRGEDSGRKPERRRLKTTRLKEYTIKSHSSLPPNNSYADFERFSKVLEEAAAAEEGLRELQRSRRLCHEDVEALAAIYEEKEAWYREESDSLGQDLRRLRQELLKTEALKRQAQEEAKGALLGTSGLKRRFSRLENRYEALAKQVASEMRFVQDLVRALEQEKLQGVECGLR
Experimental: as §1

Row | SMILES | Residual activity ([1]; 1.0E-05 M) | Residual activity ([1]; 1.0E-06 M) | Residual activity ([2]; 1.0E-05 M) | Residual activity ([2]; 1.0E-06 M) | Residual activity ([3]; 1.0E-05 M) | Residual activity ([3]; 1.0E-06 M) | Residual activity ([4]; 1.0E-05 M) | Residual activity ([4]; 1.0E-06 M) | Residual activity ([5]; 1.0E-05 M) | Residual activity ([5]; 1.0E-06 M)
1 | O=C(Nc1ccc(F)c(Nc2ccc3c(c2)CCCCC3=O)c1)c1cccc(F)c1 [Compound 109] | 93 % of control | 93 % of control | 88 % of control | 87 % of control | 97 % of control | 95 % of control | 102 % of control | 99 % of control | 107 % of control | 108 % of control
2 | O=C(Cc1ccccc1)Nc1ccc(F)c(Nc2ccc3c(c2)CCCCC3=O)c1 [Compound 100] | 101 % of control | 103 % of control | 85 % of control | 87 % of control | 106 % of control | 93 % of control | 92 % of control | 99 % of control | 119 % of control | 105 % of control
